According to patent publication US11045473B2, “Compositions and methods for therapy of prostate cancer using drug combinations to target polyamine biosynthesis and related pathways” (Health Research, Inc., priority 2015, dated 2021):

Columns and labels:
FaDu cells = assay: IC50 of MTDIA for FaDu cells; type: cell-based; settings: Homo sapiens, 144 h, 6 day treatment, 20 uM MTA
PC3 = assay: Proliferation / IC50 by trypan blue cell counts, PC3; type: cell-based, human; settings: for IC50: Homo sapiens; for effect on cell growth: 8 and 12 days
Protocol: A transition state analog inhibitor of MTAP, Methylthio-DaDMe-Immucillin-A (MTDIA) was previously described and shown to be effective following a 6 or 12 day treatment at ˜10 and 100 nM MTDIA when 20 uM MTA was added to the media in both lung adenocarcinoma cell lines and head and neck squamous carcinoma cell lines, respectively [Basu I, et al. J Biol Chem. 2007; 282:21477-21486; Basu I, et al. J Biol Chem. 2011; 286:4902-491]. 32]. We synthesized MTDIA and the analytical data on the synthesized compound are shown in FIGS. 8A and 8B with the scheme used for synthesis shown in FIG. 6. […] In all three cell lines, the proliferation curves after 12 days of treatment show an IC50 of MTDIA>1 mM in the absence of MTA (FIG. 5B), but in the 10-100 nM range with the addition of 10 or 20 μM MTA. […] Nanomolar range IC50 values are highlighted.
IC50—The MTAP inhibitor (3R,4S)-1-[(9-Deaza-adenin-9-yl)methyl]-3-hydroxy-4-(methylthiomethyl)-pyrrolidine, or MT-DADMe-Immucillin-A (MTDIA) was synthesized following the synthesis scheme shown in FIG. 6 and based on a known approach. Cells were seeded at 125,000 cells/well (PC-3, DU145, LNCaP) in triplicate in 2 mLs of RPMI medium supplemented with 10% fetal bovine serum, and 1% penicillin streptomycin. After 24 hours the MTDIA and/or MTA was added at the indicated concentrations. Both medium and drug were refreshed every 48 hours. Every 96 hours the cells were trypsinized, ˜2% of cells were removed and counted by trypan blue exclusion and the rest were replated into a larger vessel.

LNG53 cells = assay: Antiproliferative activity of MTDIA in LNCaP cells overexpressing SAT1 in Tet-off system; type: cell-based, human; settings: (-) Tet conditions, Tet removed 24 hours prior to 96 hr MTDIA
Protocol: Tet was removed 24 hours prior to 96 hr treatment with MTDIA. […] Cells were pre-treated with BENSpm for 24 hours followed by 96 hr treatment with MTDIA.
We next analyzed whether the metabolic stress in CaP cells caused by high biosynthetic flux to maintain polyamine pools can be enhanced by increasing the activity of SAT1. We tested whether this could cause increased secretion of acetylated polyamines, putting intracellular pools in deficit, which should necessitate more biosynthesis, and should therefore potentiate any benefit of inhibiting the MSP. To conduct this analysis we used LNCaP cells that stably overexpress SAT1 in a Tet-off system (LNG53 cells, described in Kee, K., et al. J Biol Chem 279, 27050-27058 (2004)).

MTAP = assay: Western blot of MTAP protein expression in DU145; type: cell-based, human; settings: DU145, 4 day IC25 and IC50 of MTDIA, presence or absence of MTA
Protocol: FIG. 9. (A) Proliferation curves for LNCaP, DU145 and PC3 treated with MTDIA in the absence or presence of 10 or 20 uM MTA, for 4 and (B) 8 days. […] (C) Western blot analysis of FaDu, LNCaP, and DU145 cells after indicated treatments of MTA (0, 10, or 20 uM) or the respective 4 day IC25 and IC50 dose of MTDIA for each cell line plus or minus MTA immunoblotted with antibodies against MTAP, SMS, and SRM, with B-actin as a loading control. Western blot images are representative of biological triplicates.
Western Blotting—Whole cell extracts were prepared in RIPA buffer (150 mM NaCl, 1.0% NP-40, 0.5% deoxycholate, 0.1% SDS, 50 mM Tris-HCl pH 8.0, 5 mM EDTA and 0.5 mM PMSF) supplemented with 1× proteinase inhibitor. Protein concentrations were determined by Bradford Assay (Thermo Scientific, Cat #1856209). […] MTAP for Westerns was purchased from Proteintech™ (Cat #11475-1-AP. SRM and SMS were purchased from Abcam® (Cat #ab111884 and ab156879). B-actin antibody for Westerns was purchased from Sigma-Aldrich (Cat #A5441) and GAPDH was from Santa Cruz Biotecnology Inc. (Cat #sc-25778). Films were scanned using the Biorad ChemiDoc XRS, and band intensities were calculated using Image Lab™. Intensity values were normalized to B-actin loading control band intensities and made relative to control treatment conditions.

## CSC[C@H]1CN(Cc2c[nH]c3c(N)ncnc23)C[C@@H]1O [MTDIA, (3R,4S)-1-[(9-Deaza-adenin-9-yl)methyl]-3-hydroxy-4-(methylthiomethyl)-pyrrolidine]
FaDu cells
  IC50: ~0.05 µM
PC3; PC-3, 96 h, PC3, 4 days, 0 μM MTA
  IC50: > 1000 µM
PC3; PC-3, 96 h, PC3, 4 days, 10 μM MTA
  IC50: > 1000 µM
PC3; PC-3, 96 h, PC3, 4 days, 20 μM MTA
  IC50: 300 µM
PC3; PC-3, 192 h, PC3, 8 days, 0 μM MTA
  IC50: > 1000 µM
PC3; PC-3, 192 h, PC3, 8 days, 10 μM MTA
  IC50: 100 µM
PC3; PC-3, 192 h, PC3, 8 days, 20 μM MTA
  IC50: 0.09 µM
PC3; PC-3, 288 h, PC3, 12 days, 0 μM MTA
  IC50: > 1000 µM
PC3; PC-3, 288 h, PC3, 12 days, 10 μM MTA
  IC50: 80 µM
PC3; PC-3, 288 h, PC3, 12 days, 20 μM MTA
  IC50: 0.082 µM
PC3; PC-3, 288 h, PC3, 12 days, with 10 or 20 μM MTA
  IC50: 0.01 to 0.1 µM
PC3; PC3, 100 nM MTDIA, with 20 μM MTA
  effect on cell growth: dramatic effect on cell growth
PC3; PC3, 100 nM MTDIA, without MTA
  effect on cell growth: little to no effect
PC3; PC3, 100 nM MTDIA, 4 days, with or without 20 μM MTA
  effect on growth: limited effects on growth
PC3; PC3, 6 days, low concentrations of MTDIA
  blocking cell growth: no effect at blocking cell growth
LNG53 cells
  sensitivity to MTDIA when SAT1 is overexpressed: much more sensitive
MTAP
  MTAP expression: upregulate expression of MTAP
